Values quoted from earlier work as cited in patent publication US20110118355A1, “TREATMENT OF MIGRAINE HEADACHES USING ANTIESTROGENS” (priority 2007, published 2011).

Settings: one person, no aura, headache accompanied by fever; Letter to the Editor, Headache 32:315 (1992)

For `CCN(CC)CCOc1ccc(C(=C(Cl)c2ccccc2)c2ccccc2)cc1` [clomiphene], the “clinical benefit in headaches diagnosed as common migraine” value is given as “benefited”.
